Laboratory results reported in patent publication US6060473A, “7-azabicyclo[2.2.1]-heptane and -heptene derivatives as cholinergic receptor ligands” (priority 1996, dated 2000).
pIC50: −log10 of the molar value. Where two headings read alike, the source gives them in different places.

How the values were obtained:
[1] = molecular target: T1, acetylcholine nicotinic receptor (Rattus norvegicus, UniProt P09483+P12390); assay: Nicotinic receptor binding, [3H]-NMCI radioligand, rat cortex (Table 6)
T1 construct: rat cortex as the tissue substrate; from tissue; host or cells: rat cortex
Protocol: 7-Aza-bicyclo[2.2.1]-heptanes and -heptenes were evaluated for their ability to bind to the acetylcholine nicotinic receptor using a standard binding assay, e.g. X. Zhang and A. Nordberg, Arch. Pharmacol., 348, 28 (1993); R. E. Middleton and J. B. Cohen, Biochemistry, 30, 6987 (1991), with nicotine sulfate as the reference compound, rat cortex as the tissue substrate, and a [^3 H]-NMCI radioligand.

[2] = Tail-flick assay (Tables 7 and 8, species not stated per value); format: in vivo, mice and rats; conditions: for ED50: Mus musculus, sc, 5 min, read-out: Tail-Flick Assay ED50; for Tail-Flick Assay % Effect after 5 min: Table 7, 5 min; for Tail-Flick Assay % Effect after 5 min / Tail-Flick Assay % Effect after 60 min: head also prints ED50 (mg/kg); for Tail-Flick Assay % Effect after 60 min: Table 7, 60 min
Protocol: (§1) Female CD-1 mice (20-25 g, Charles River Labs) and male CD rats (300-400 g, Charles River Labs) were housed in groups of two and five, respectively. Animals were given food and water ad libitum. Most studies were performed using groups of 5 animals per treatment unless otherwise noted.
(§2) Antinociceptive effects (i.e., analgesia) of test compounds in mice and rats were measured by the tail-flick test using a tail-flick analgesia meter (EMDIE Instrument Co.). A maximum latency of 10 sec was imposed if no response occurred within that time. Antinociceptive activity, measured as % MPE, was calculated as [(test-control)/(10-control)×100)].
(§3) Duration of compound and (-)-nicotine-induced antinociception was assessed in mice by measuring antinociception at 2, 5, 10, 20 min after compound (20 μg/kg, s.c.) or nicotine (5 mg/kg, s.c.).
Mice (7/group) or rats were pretreated i.v. (0.9% saline or antagonist, mecamylamine, hexamethonium, atropine, naloxone or yohimbine) 10 minutes before administration of compound or nicotine at different doses. […]

[3] = Straub-Tail assay (Table 5); format: in vivo
Excerpt: A wide variety of biological assays have been used to evaluate the ability of a compound to act as an analgesic. Any of these known assays can be used to evaluate the analgesic ability of the compounds disclosed herein. The Straub-tail reaction, which is characteristic of opiate alkaloids, has been used as an assay for opiate agonists and antagonists. The assay is described in detail in Br. J. of Pharmacol. 1969, 36, 225. Another accepted assay for analgesic activity is the hot plate analgesia assay, described in J. of Pharmacol. Exp. Therap. 1953, 107, 385. An assay for the evaluation of the ability of a compound to bind to an opiate receptor is described in Mol. Pharmacol. 1974, 10, 868.
Table 5 provides the analgesic activity measured as ED50 (μg/Kg) for selected compounds disclosed herein, as determined using the Straub-Tail assay, as describe by J. Daily et al. J. Am. […] Chem. Soc. 1992, 114, 3475; T. Li, et al. Bioorganic and Medicinal Chemistry Letters 1993, 3, 2759.

[4] = molecular target: T2, nicotinic cholinergic receptor (Rattus norvegicus, UniProt P09483+P12390); assay: Competition with [3H](-)-cytisine for binding to rat cortex (brain) receptors (Tables 7, 8, 9)
T2 construct: A membrane fraction from rat brain cortex; tissue Harlan Laboratories; host or cells: rat brain cortex membranes
Excerpt: [^3 -H](-)-Cytisine is a nicotinic cholinergic receptor ligand that binds with high affinity to the a4b2 subtype receptor, the major subtype in rodent brain accounting for >90% of (-)-nicotine binding sites (Flores, et al., 1992; Whiting, et al., 1992). This nicotinic receptor subtype is most sensitive to (-)-nicotine compared to other receptor subtypes (Connolly, et al., (1992). Compounds that compete with cytisine for the nicotinic cholineric receptor are considered nicotine receptor agonists.
A membrane fraction from rat brain cortex (Harlan Laboratories) was prepared using an adaptation of an established method (Pabreza, et al., 1991). Compound and [^3 H]-(-)-cytisine (New England Nuclear, 42 Ci/mmol) were mixed before addition of membrane (0.5 mg protein) and incubated in glass tubes for 75 minutes on ice; total assay volume was 0.24 ml. Parallel assays to determine nonspecific binding were incubated in the presence of 10 uM (-)-nicotine (Sigma). Bound radioactivity was isolated by vacuum filtration onto glass microfiber filters (Whatman, GF-B) using millipore tubs, followed by 3×4 ml buffer wash. Filters were prerinsed with 0.5% polyethyleneimine prior to sample filtration to reduce nonspecific binding. Bound radioactivity was quantitated by scintillation counting.

[5] = Tail-flick assay, rat (Table 9); format: in vivo; conditions: sc, 5 min
Protocol: as §1, §2
(§4) Mice (7/group) or rats were pretreated i.v. (0.9% saline or antagonist, mecamylamine, hexamethonium, atropine, naloxone or yohimbine) 10 minutes before administration of compound or nicotine at different doses. A control response (1.5-4 sec) was determined for each animal before treatment and test latencies were assessed at 5 minutes after compound administration (5 ml/kg, s.c.) or 2 min after nicotine (5 ml/kg, s.c.).

[6] = Tail-flick assay, mouse (Table 9); format: in vivo; conditions: sc, 5 min
Protocol: as §1, §2, §3, §4

[7] = opiate antagonist naloxone; cited from earlier work
[8] = test system: nicotinic cholinergic receptor; conditions: in words; cited from earlier work
a4b2 subtype receptor = conditions: in words; cited from earlier work
[9] = Table 7, rat brain cortex membranes, read-out: Nicotine Receptor Cytisine IC50
[10] = Table 9, read-out: rat brain, 3H-cytisine binding IC50

Structure (SMILES): CN1C2CCC1C(c1ccc(Cl)nc1)C2 (stereo not shown)
- Inhibition % ([1]; testing level 10^-9): 22%
- Inhibition % ([1]; testing level 10^-11): 5%

Structure (SMILES): c1cncc(C2CC3CCC2N3)c1 (stereo not shown)
- Inhibition % ([1]; testing level 10^-9): 103%

Structure (SMILES): C[N+]1(C)C2CCC1C(c1ccc(Cl)nc1)C2 (stereo not shown)
- Inhibition % ([1]; testing level 10^-9): 49%

Structure (SMILES): N=CN1C2CCC1C(c1ccc(Cl)nc1)C2 (stereo not shown)
- Inhibition % ([1]; testing level 10^-9): 49%
- Inhibition % ([1]; testing level 10^-11): 22%

Structure (SMILES): N=CN1C2CCC1C(c1cccnc1)C2 (stereo not shown)
- Inhibition % ([1]; testing level 10^-9): 5%

Structure (SMILES): Cc1cc(C2CC3CCC2N3)on1 (stereo not shown)
- ED50 [2]: > 2 mg/kg

Structure (SMILES): Cc1cc(C2CC3CCC2N3C)on1 (stereo not shown)
- ED50 ([2]; Table 8): ~1 mg/kg

Structure (SMILES): c1ccc2nc(C3CC4CCC3N4)ccc2c1 (stereo not shown)
- ED50 [2]: > 2 mg/kg

Structure (SMILES): Clc1ccc([C@H]2C[C@H]3CC[C@@H]2N3)cn1 (relative stereo)
- ED50 [3]: > 0.1 mg/kg

Structure (SMILES): Clc1ccc([C@@H]2C[C@H]3CC[C@@H]2N3CC2CC2)cn1 (relative stereo)
- effect at 1000 μg/Kg ([3]; @ 1000 (μg/Kg)): 100%

Structure (SMILES): C[N+]1(C)[C@@H]2CC[C@H]1[C@H](c1ccc(Cl)nc1)C2 (relative stereo)
- ED50 ([3]; read-out: ED50): 0.1 to 0.2 mg/kg

Structure (SMILES): Fc1ccc([C@H]2C[C@H]3CC[C@@H]2N3)cn1 (relative stereo)
- ED50 ([3]; read-out: ED50): ~0.01 mg/kg

Structure (SMILES): N=CN1[C@@H]2CC[C@H]1[C@H](c1ccc(Cl)nc1)C2 (relative stereo)
- effect at 100 ([3]; @ 100 (dose unit not given; column μg/Kg)): 99%

Structure (SMILES): Cc1nnc([C@H]2C[C@H]3CC[C@@H]2N3C)o1 (relative stereo)
- pIC50 [4, 9]: 4.49
- Tail-Flick Assay % Effect after 5 min [2]: -2.9%
- Tail-Flick Assay % Effect after 60 min [2]: -3.6%

Structure (SMILES): Cc1nnc([C@@H]2C[C@H]3CC[C@@H]2N3C)o1 (relative stereo)
- pIC50 [4, 9]: 6.82
- Tail-Flick Assay % Effect after 5 min [2]: 6.7%
- Tail-Flick Assay % Effect after 60 min [2]: 24.6%

Structure (SMILES): Cc1noc([C@@H]2C[C@H]3CC[C@@H]2N3C)n1 (relative stereo) [racemic A/B, (±)-exo-2-(3-methyl-1,2,4-oxadiazol-5-yl)-7-methyl-7-azabicyclo[2.2.1]heptane]
- pIC50 [4, 10]: 7.00
- ED50 [5]: 2.2 mg/kg
- ED50 [6]: 0.2 mg/kg

Structure (SMILES): Cc1noc([C@@H]2C[C@H]3CC[C@@H]2N3C)n1 (single isomer, unassigned) [A]
- pIC50 [4, 10]: 5.85

Structure (SMILES): Cc1noc([C@@H]2C[C@H]3CC[C@@H]2N3C)n1 (single isomer, unassigned) [B]
- pIC50 [4, 10]: 7.74

Structure (SMILES): Clc1ccc([C@@H]2C[C@H]3CC[C@@H]2N3)cn1 (single isomer, unassigned) [epibatidine, exo-2-(2-chloro-5-pyridyl)-7-azabicyclo [2.2.1]heptane]
- reversal of Straub-tail effect by naloxone [7]: not reversed by the opiate antagonist naloxone
- nicotinic cholinergic receptor agonism [8]: nicotinic cholinergic receptor agonist

Structure (SMILES): Clc1ccc(C2CC3CCC2N3)cn1 (stereo not shown) [1-epibatidine]
- ED50 [3]: 0.009 mg/kg

Structure (SMILES): O=c1cccc2n1C[C@@H]1CNC[C@H]2C1 [[^3 -H](-)-Cytisine]
- affinity to a4b2 subtype receptor (a4b2 subtype receptor): high affinity

Structure (SMILES): Clc1ccc([C@@H]2C[C@H]3CC[C@@H]2N3)cn1 [d-epibatidine]
- ED50 [3]: 0.0075 mg/kg
